Results taken from patent US12162890B2 (Novartis AG, priority 2015, dated 2024).

Molecular target: HEK293 cells with stable expression of the GRIN1 gene and tetracycline-inducible expression of the GRIN2B gene (NMDA receptor, NR2B) (Homo sapiens, UniProt Q13224)
Test: Fluo-8 Ca2+ flux assay: reversal of Ro 25-6981-mediated suppression of the Ca2+ response to co-agonist (glutamate/glycine); note: test concentration or dose not given here
Assay type: cell-based
Conditions: reversal of the Ro 25-6981 suppression of the Ca2+ response to co-agonist (glutamate/glycine)

Sequence of HEK293 cells with stable expression of the GRIN1 gene and tetracycline-inducible expression of the GRIN2B gene (NMDA receptor, NR2B) (Q13224 27-1484, other chains not shown): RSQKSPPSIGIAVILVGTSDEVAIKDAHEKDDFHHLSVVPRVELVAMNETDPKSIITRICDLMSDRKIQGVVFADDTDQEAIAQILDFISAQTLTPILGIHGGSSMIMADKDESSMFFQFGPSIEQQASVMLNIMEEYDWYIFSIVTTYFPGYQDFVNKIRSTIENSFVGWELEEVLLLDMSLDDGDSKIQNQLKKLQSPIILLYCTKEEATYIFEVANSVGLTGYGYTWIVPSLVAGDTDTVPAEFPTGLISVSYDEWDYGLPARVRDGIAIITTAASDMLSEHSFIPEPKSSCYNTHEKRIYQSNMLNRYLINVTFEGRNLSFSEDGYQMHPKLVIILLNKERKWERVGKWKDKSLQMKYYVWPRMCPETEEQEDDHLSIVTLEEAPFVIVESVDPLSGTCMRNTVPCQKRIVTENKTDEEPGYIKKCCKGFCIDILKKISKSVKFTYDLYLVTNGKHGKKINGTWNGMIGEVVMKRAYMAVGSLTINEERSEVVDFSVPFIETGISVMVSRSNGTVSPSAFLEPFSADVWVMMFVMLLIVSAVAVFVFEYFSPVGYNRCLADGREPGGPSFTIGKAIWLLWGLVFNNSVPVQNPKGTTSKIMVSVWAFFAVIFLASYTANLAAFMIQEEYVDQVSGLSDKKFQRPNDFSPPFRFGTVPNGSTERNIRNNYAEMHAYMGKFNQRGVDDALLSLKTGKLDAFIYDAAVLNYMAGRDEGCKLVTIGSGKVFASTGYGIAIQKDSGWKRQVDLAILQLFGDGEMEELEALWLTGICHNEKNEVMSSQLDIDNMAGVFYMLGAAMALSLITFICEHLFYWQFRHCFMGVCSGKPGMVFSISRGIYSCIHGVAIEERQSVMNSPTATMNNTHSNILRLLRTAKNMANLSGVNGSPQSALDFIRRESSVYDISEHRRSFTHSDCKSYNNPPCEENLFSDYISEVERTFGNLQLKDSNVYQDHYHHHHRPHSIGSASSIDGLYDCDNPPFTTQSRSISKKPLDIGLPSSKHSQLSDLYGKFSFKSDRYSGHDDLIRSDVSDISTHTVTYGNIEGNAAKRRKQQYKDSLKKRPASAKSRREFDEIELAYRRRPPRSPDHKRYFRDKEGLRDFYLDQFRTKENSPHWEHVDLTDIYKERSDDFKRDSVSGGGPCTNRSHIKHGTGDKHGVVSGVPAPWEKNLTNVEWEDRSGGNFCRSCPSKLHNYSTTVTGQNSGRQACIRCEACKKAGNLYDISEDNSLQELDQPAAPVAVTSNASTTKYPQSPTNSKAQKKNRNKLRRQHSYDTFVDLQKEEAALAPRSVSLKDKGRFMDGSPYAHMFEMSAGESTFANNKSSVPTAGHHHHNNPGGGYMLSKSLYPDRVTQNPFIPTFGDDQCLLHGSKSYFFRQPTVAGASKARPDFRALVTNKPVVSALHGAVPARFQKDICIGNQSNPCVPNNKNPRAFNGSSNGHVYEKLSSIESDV

SMILES	Response Recovered (%)
O=C(Cn1cnc2c(c(-c3ccc(F)c(Cl)c3)cn2C2CC2)c1=O)N1CCCC1 [Example 192, 5-(3-chloro-4-fluorophenyl)-7-cyclopropyl-3-(2-oxo-2-(pyrrolidin-1-yl)ethyl)-3H-pyrrolo[2,3-d]pyrimidin-4(7H)-one]	42%
C[Si](C)(C)CCOCn1cc(-c2ccc(Cl)c(C(F)(F)F)c2)c2c(=O)n(CC(=O)N3CCC(F)C3)ccc21 (stereo not drawn) [Example 199, 3-(4-chloro-3-(trifluoromethyl)phenyl)-5-(2-(3-fluoropyrrolidin-1-yl)-2-oxoethyl)-1-((2-(trimethylsilyl)ethoxy)methyl)-1H-pyrrolo[3,2-c]pyridin-4(5H)-one]	47%
COCc1cn(CC(=O)N2CCC(F)C2)c(=O)c2c(-c3ccc(Cl)c(Cl)c3)csc12 (stereo not drawn) [Example 132, 3-(3,4-dichlorophenyl)-5-(2-(3-fluoropyrrolidin-1-yl)-2-oxoethyl)-7-(methoxymethyl) thieno[3,2-c]pyridin-4(5H)-one]	20%
CCC1(F)CN(C(=O)Cn2ccn3ccc(-c4cnc(Cl)c(Cl)c4)c3c2=O)C1 [Example 405, 8-(5,6-dichloropyridin-3-yl)-2-(2-(3-ethyl-3-fluoroazetidin-1-yl)-2-oxoethyl)pyrrolo[1,2-a]pyrazin-1(2H)-one]	61%
O=C(Cn1cnc2csc(-c3ccc(F)c(Cl)c3)c2c1=O)N1CCCC1 [Example 359, 5-(3-chloro-4-fluorophenyl)-3-(2-oxo-2-(pyrrolidin-1-yl)ethyl)thieno[3,4-d]pyrimidin-4(3H)-one]	35%
O=C(Cn1ccc2scc(-c3ccc(F)c(C(F)(F)F)c3)c2c1=O)N1CC[C@H](F)C1 [Example 26, (S)-3-(4-fluoro-3-(trifluoromethyl)phen-yl)-5-(2-(3-fluoropyrrolidin-1-yl)-2-oxoethyl)thieno[3,2-c]pyridin-4(5H)-one]	103%
O=C(Cn1ccc2scc(-c3ccc(C(F)(F)F)c(Cl)c3)c2c1=O)N1CCC(F)C1 (stereo not drawn) [Example 13, 3-(3-chloro-4-(trifluoromethyl)phenyl)-5-(2-(3-fluoropyrrolidin-1-yl)-2-oxoethyl)thieno[3,2-c]pyridin-4(5H)-one]	90%
C[Si](C)(C)CCOCn1cc(-c2ccc(F)c(Cl)c2)c2c(=O)n(CC(=O)N3CC(F)(F)C3)ccc21 [Example 207, 3-(3-chloro-4-fluorophenyl)-5-(2-(3,3-difluoroazetidin-1-yl)-2-oxoethyl)-1-((2-(trimethylsilyl)ethoxy)methyl)-1H-pyrrolo[3,2-c]pyndin-4(5H)-one]	69%
CC1(F)CN(C(=O)Cn2ccc3c(c(-c4ccc(F)c(Cl)c4)cn3C3CC3)c2=O)C1 [Example 285, 3-(3-chloro-4-fluorophenyl)-1-cyclopropyl-5-(2-(3-fluoro-3-methylazetidin-1-yl)-2-oxoethyl)-1H-pyrrolo[3,2-c]pyridin-4(5H)-one]	140%
O=C(Cn1ccn2ccc(-c3ccc(Cl)c(Cl)c3)c2c1=O)N1CCC(F)C1 (stereo not drawn) [Example 395, 8-(3,4-dichlorophenyl)-2-(2-(3-fluoropyrrolidin-1-yl)-2-oxoethyl)pyrrolo[1,2-a]pyrazin-1(2H)-one]	58%
O=C(Cn1cc(CN2CCC2)c2scc(-c3ccc(F)c(Cl)c3)c2c1=O)N1CCC(F)C1 (stereo not drawn) [Example 124, 7-(azetidin-1-ylmethyl)-3-(3-chloro-4-fluorophenyl)-5-(2-(3-fluoropyrrolidin-1-yl)-2-oxoethyl)thieno[3,2-c]pyridin-4(5H)-one]	76%
O=C(Cn1cnc2csc(-c3ccc(Cl)cc3)c2c1=O)N1CCCCC1 [Example 350, 5-(4-chlorophenyl)-3-(2-oxo-2-(piperidin-1-yl)ethyl)thieno[3,4-d]pyrimidin-4(3H)-one]	0%
